Assay [1] deals with primary lymphoma cells freshly isolated from patients. Nature of the assay: Proliferation of primary lymphoma patient cells. Type of assay: cell-based, human. The conditions noted are these: 5 patient samples (MCL, high grade B-cell lymphoma, follicular 3B, DLBCL, angioimmunoblastic TCL). From the text:
(A) Immunoblot of GSK-3α and GSK-3β proteins showing overexpression in patient samples vs normal B-cell control. P1: MCL; P2: High grade B-cell lymphoma; P3: follicular large B-cell lymphoma 3B; P4: DLBCL; P5: angioimmunoblastic T-cell lymphoma. (B) 9-ING-41 inhibited proliferation in all 5 patient samples. (C) Immunohistochemistry staining of GSK-3β on paraffin tissue sections of patients with various lymphoma. Representative images show the spectrum of GSK-3β (in brown) overexpression in different lymphoma samples. […] Images were collected under 40× magnification.
Lymphoma tissue samples were obtained from patients after written informed consent. This Lymphoma SPORE biospecimens protocol was approved by the Mayo Clinic Institutional Review Board in accordance with the Declaration of Helsinki. All primary patient samples were biopsy tissues from spleen or lymph nodes. Fresh tissue samples were gently dissociated into cell suspension and subjected to Ficoll-Paque density gradient centrifugation. Primary lymphoma cells were then used directly for proliferation assay, or stored in −80° C. for Western analysis later after lymphoma diagnosis confirmation.
Cells were seeded at 1×10^4 cells/well in 96 well plates, and incubated with 9-ING-41 at indicated concentrations for 48 hours followed by pulsing with tritium labeled thymidine for overnight before being analyzed for thymidine uptake. […]

In another assay the test system is Jeko cells. Description: Mitotic stage morphology (Wright stain, differential counting). It is filed as cell-based, human. The conditions noted are these: 1.0 uM, 24 hours. How it is done:
(A) Cartoon depiction of the sequential steps (M1-M5) during mitosis (purchased from Shutterstock and modified). (B). Representative Wright stain images of Jeko cells untreated and treated with 1.0 uM 9-ING-41 for 24 hours. […] (C). Bar chart showing the number of mitotic M1-M5 cells identified when 100 untreated or 9-ING-41 treated Jeko cells were counted.
Although cells arrested in G2/M appear as a single DNA content (4N) peak on a flow cytometry histogram (FIG. 6A), there are actually at least 5 sequential steps (M1-M5) in G2/M critical to successful cell division. These include prophase (M1, chromosome condensation, mitotic spindle formation starts), prometaphase (M2, nuclear membrane breakdown, centrosome polarization), metaphase (M3, chromosome pairs align middle plane), anaphase (M4, daughter chromatids separate), telophase (M5, reformation of daughter nuclei), and the final cytokinesis (separation of two daughter cells). Each of these discrete steps has a unique identifiable nuclear morphology on Wright's stained cells (depicted in FIG. 7A). The morphology of untreated and 9-ING-41 treated Jeko cells to determine at what stage they become arrested was examined. […] These observations support the conclusion that GSK3 activity is necessary for the progression of mitotic prophase.

Assay [2] relates to lymphoma cell lines (Jeko, Mino, OCI-Ly3). Nature of the assay: DNA cell cycle analysis. Type of assay: cell-based, human. The conditions noted are these: after as little as 24 hours of treatment, all lines tested. How it is done:
(B) Cell cycle profiles of parental Ly-1 cells and GSK3α, GSK3β, GSK-3αβ knockout subclones. Inset: Western blot image showing the depletion of GSK3α and GSK-3β protein in the knockout Ly-1 subclones.
Cells were fixed and permeabilized with cold ethanol, treated with RNase, and stained with propidium iodide (Sigma). Stained cells were run on a BD FACS Calibur using CELLQuest PRO Software (Becton Dickinson). Data were analyzed with FlowJo v.X software (Tree Star Inc).
The effect of 9-ING-41 on lymphoma cell cycle kinetics was examined. […] To further determine whether this G2/M arrest specifically resulted from GSK3β inhibition, the cell cycle profile of parental (wildtype), GSK3A, GSK3B, and GSK3A/B knockout Ly-1 subclones was examined. […] These cell cycle abnormalities of GSK3B-null and GSK3A/B-null Ly-1 cells are subtle and have little impact on the survival of the Ly-1 progeny, likely through Ly-1 cell line specific compensatory mechanisms.

The subject of the next assay is TCL and MCL lines. Description: Thymidine incorporation assay in TCL and MCL lines. Type of assay: cell-based, human. To be noted: 9-ING-41 concentrations as low as 1.0 μM. How it is done: Unstimulated peripheral blood B- and T-lymphocytes isolated from a healthy donor were used as normal control. Pro-apoptotic effect of the GSK3 inhibitor 9-ING-41 in various MCL and TCL lines (A) and DLBCL lines (B). (C) Cell proliferation profile of various lymphoma cell lines upon treatment with 9-ING-41. Results (A-C) are from 3 independent experiments.
Cells were seeded at 1×10^4 cells/well in 96 well plates, and incubated with 9-ING-41 at indicated concentrations for 48 hours followed by pulsing with tritium labeled thymidine for overnight before being analyzed for thymidine uptake.
9-ING-41 can specifically induce lymphoma cell apoptosis without affecting normal lymphocytes. The thymidine incorporation assay in the presence or absence of 9-ING-41 was performed to test the role of GSK3 in lymphoma cell proliferation. […] The DLBCL lines required slightly higher concentrations. The IC50 of 9-ING-41 on cell proliferation for various lymphoma cell lines was calculated (Table 1).
For orientation: Uptake of a labelled nucleoside into DNA is a usual measure of proliferation.

The subject of a further assay is Mantle Cell lymphoma. Description: Treatment of Mantle Cell Lymphoma in a human. It is filed as in vivo. The conditions noted are these: 3 mg/kg per day, six 21 day cycles. How it is done:
A human suffering from Mantle Cell lymphoma is administered 3 mg/kg per day of 9-ING-41 for six 21 day cycles. After treatment, the human's MCL is in remission.

In assay [3] the test system is T-cell lymphoma (non-Hodgkin's). Nature of the assay: Treatment of T-Cell Lymphoma in a human. To be noted: 2 mg/kg per day, six 21 day cycles. It is filed as in vivo. The protocol:
A human suffering from T-cell lymphoma (non-Hodgkin's) is administered 2 mg/kg per day of 9-ING-41 for six 21 day cycles. After treatment, the human's TCL is in remission.

Assay [4] has as its system Diffuse large B-cell lymphoma. Description: Treatment of Diffuse Large B-cell Lymphoma in a human. Type of assay: in vivo. To be noted: 1 mg/kg per day, six 21 day cycles. How it is done:
A human suffering from Diffuse large B-cell lymphoma is administered 1 mg/kg per day of 9-ING-41 for six 21 day cycles. After treatment, the human's DLBCL is in remission.

For the compound `Cn1cc(C2=C(c3coc4ccc(F)cc34)C(=O)NC2=O)c2cc3c(cc21)OCO3` [9-ING-41, 3-(5-Fluorobenzofuran-3-yl)-4-(5-methyl-5H-[1,3]dioxolo[4,5-f]indol-7-yl)pyrrole-2,5-dione], the “Antiproliferative effect in primary patient cells” value in assay [1] is listed as “similarly responsive to the antiproliferative effects”. In the assay on Jeko cells, the “Mitotic stages seen among 100 mitotic cells” value was “only prophase (M1) cells”. In addition, the Cell cycle effect entry in assay [2] was “cell cycle blockage at G2/M”. Also, in the assay with TCL and MCL lines, the “Proliferation rate of all TCL and MCL lines” value is “profoundly inhibited”. The Outcome after treatment entry (with Mantle Cell lymphoma; in assay [3]; in assay [4]) was “in remission” in each case.

Source of the values: patent US11980607B2, “Methods of treating malignant lymphoproliferative disorders” (Actuate Therapeutics Inc., priority 2018, dated 2024).
